Data reported in patent US6486151B2, “N-oxides of heterocyclic esters, amides, thioesters, and ketones” (GPI NIL Holdings Inc., priority 1997, dated 2002).

Assays:
[1] = Liver microsomal assay (model of first pass metabolism); assay type: in vitro ADME, mouse
Method: (§1) In studies to directly asses the rate of metabolism of N-oxides, a mouse liver microsomal assay was used as described below to model first pass metabolism.
Liver microsomes from various species were purchased from a commercial supplier. The microsomes are characterized prior to shipment. The reaction mixture contained microsomes, 5 μM MgCl2, 1 mM NADP, 4 mM glucose-6-phosphate (G-6-P), and 1 unit/4 mL glucose-6-phosphate dehydrogenase (G-6-P DH). The final microsomal protein concentration for all studies was 0.2 mg/mL. Incubations were carried out for 1 hour in a shaking water bath (37° C.). The reaction was terminated by removing an aliquot from the reaction mixture and placing it in a tube with an equal volume of acetonitrile and the bioanalytical internal standard. The results of these experiments are presented as compound half-lives (t1/2) in Table II.

FKBP12 = FKBP12 (Homo sapiens, UniProt P62942); assay: Ki test procedure: inhibition of peptidyl-prolyl isomerase (rotamase) activity, chymotrypsin-coupled assay; assay type: biochemical; conditions: FKBP, substrate N-succinyl-Ala-Ala-Pro-Phe-p-nitroanilide; read-out: Ki (apparent Ki, rotamase inhibition)
Sequence of FKBP12 (P62942 whole entry): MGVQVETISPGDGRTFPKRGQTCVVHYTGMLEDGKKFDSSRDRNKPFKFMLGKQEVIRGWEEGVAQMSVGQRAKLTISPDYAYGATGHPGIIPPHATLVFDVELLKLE
Text: As discussed above, the compounds of the present invention have an affinity for the FK506 binding protein, particularly FKBP12. The inhibition of the prolyl peptidyl cis-trans isomerase activity of FKBP may be measured as an indicator of this affinity.
Inhibition of the peptidyl-prolyl isomerase (rotamase) activity of the inventive compounds can be evaluated by known methods described in the literature (Harding, et al., Nature, 1989, 341 :758-760; Holt et al. J. Am. Chem. Soc., 115:9923-91938). The cis-trans isomerization of an alanine-proline bond in a model substrate, N-succinyl-Ala-Ala-Pro-Phe-p-nitroanilide, is monitored spectrophotometrically in a chymotrypsin-coupled assay, which releases para-nitroanilide from the trans form of the substrate. The inhibition of this reaction caused by the addition of different concentrations of inhibitor is determined, and the data is analyzed as a change in first-order rate constant as a function of inhibitor concentration to yield the apparent Ki values. […]
The absorbance at 390 nm versus time is monitored for 90 seconds using a spectrophotometer and the rate constants are determined from the absorbance versus time data files. […]

[2] = tested on: MPTP lesioning of dopaminergic neurons in mice; assay: MPTP model of Parkinson's Disease: striatal TH innervation density; assay type: in vivo; conditions: MPTP 30 mg/kg i.p. 5 days, test compound 4 mg/kg s.c., FIG. 1
Method: FIG. 1 is a bar graph showing Protection of Striatal TH Innervation Density from MPTP-toxicity by Concurrent Drug Dosing.
MPTP lesioning of dopaminergic neurons in mice is used as an animal model of Parkinson's Disease. Four week old male CD1 white mice are dosed i.p. with 30 mg/kg of MPTP for 5 days. Test compounds (4 mg/kg), or vehicle, are administered s.c. along with the MPTP for 5 days, as well as for an additional five days following cessation of MPTP treatment. At 18 days following MPTP treatment, the animals are sacrificed and the striata dissected and perfusion-fixed. Immunostaining is performed on sagittal and coronal brain sections using anti-tyrosine hydroxylase […] to quantitative survival and recovery of dopaminergic neurons. In animals treated MPTP and vehicle, a substantial loss of functional dopaminergic terminals is observed as compared to non-lesioned animals. Lesioned animals receiving test compounds show a significant recovery of TH-stained dopaminergic neurons. This model presents quantitation for the recovery of TH-positive dopaminergic neurons in the striatum of animals receiving of animals receiving the compounds of the present invention. Data for representative control and lesioned animals not receiving the test drugs is also presented against the data from the animals receiving the compounds of the present invention. […]

rabbit liver esterase = assay: Esterase activity: degradation by purified rabbit liver esterase; assay type: in vitro ADME; conditions: for de-esterification by purified esterase (in words): purified esterification enzyme in vitro; for esterase degradation (rate of enzymatic degradation): purified rabbit liver esterase, 0.05 M Tris buffer pH 7.5, 2 hours
Method: as §1
Purified rabbit liver esterase was purchased from Sigma. Five (5) units of enzyme were placed in 2 mL of 0.05 M Tris buffer (pH 7.5). Incubations were performed for 2 hours. The reaction was terminated by removing an aliquot from the reaction mixture and placing it in a tube with an equal volume of acetonitrile and the bioanalytical internal standard. The results of these experiments are presented in Table II as rates of enzymatic degradation of the compounds.

[3] = tested on: chick dorsal root ganglia; assay: Chick dorsal root ganglion cultures and neurite growth; assay type: cell-based; conditions: Gallus gallus; chick embryo DRG explants, 48 hours after drug treatment; read-out: ED50 (neurite outgrowth)
Method: Dorsal root ganglia were dissected from chick embryos of ten day gestation. Whole ganglion explants were cultured on thin layer Matrigel-coated 12 well plates with Liebovitz L15 plus high glucose media supplemented with 2 mM glutamine and 10% fetal calf serum, and also containing 10 μM cytosine β-D arabinofuranoside (Ara C) at 37° C. in an environment containing 5% CO2. Twenty-four hours later, […] Forty-eight hours after drug treatment, the ganglia were visualized under phase contrast or Hoffman Modulation contrast with a Zeiss Axiovert inverted microscope. Photomicrographs of the explants were made, and neurite outgrowth was quantified. Neurites longer than the DRG diameter were counted as positive, with total number of neurites quantitated per each experimental condition. Three to four DRGs are cultured per well, and each treatment was performed in duplicate.

half-life ([1]; mouse liver microsomes, 0.2 mg/mL protein, 37° C., 1 hour incubation, read-out: t1/2 (compound half-life in microsomal assay)) [min] | Compound | half-life compared with parent compound (in words) ([1]; mouse liver microsomal assay) | t1/2 (compound half-life in microsomal assay) ([1]; mouse liver microsomes, 0.2 mg/mL protein, 37° C., 1 hour incubation) [min] | Ki (FKBP12) [nM] | protection / recovery of striatal TH-positive dopaminergic innervation (in words) [2] | de-esterification by purified esterase (in words) (rabbit liver esterase) | esterase degradation (rate of enzymatic degradation) (rabbit liver esterase) [pmol/min/mg protein] | EC50 [3] [nM]
– | CCC(C)(C)C(=O)C(=O)N1CCC[C@H]1C(=O)OCCCc1ccc[n+]([O-])c1 [Example 1, 3-(3-Pyridyl)-1-propyl (2S)-1-(3,3-Dimethyl-1,2-dioxopentyl) -2-pyrrolidinecarboxylate, N-oxide] | significantly longer half-life than the parent compound | 42.8 | 225 | more potent in this in vivo model of neurodegeneration | limited de-esterification | 367 | –
8.1 | CCC(C)(C)C(=O)C(=O)N1CCC[C@H]1C(=O)OCCCc1cccnc1 [Parent, 3-(3-Pyridyl)-1-propyl (2S)-1-(3,3-Dimethyl-1,2-dioxopentyl)-2-pyrrolidinecarboxylate, reference compound] | – | – | – | – | significant degradation | 7521 | 0.05
